The numbers were not newly measured in Sander's compilation of Henry's law constants, which cites them from elsewhere.

“And” between values parts separate entries of the source, which are not always exact repeats. Equal entries are not always repeated.

A short description of the data set: Henry solubility constant Hcp at 298.15 K (mol/(m3 Pa)). As to conditions: cited value.
The mark [1] stands for this setting: reference: Barcelo and Hennion (1997).
Setting [2] is: reference: Burkholder et al. (2019).
[3] abbreviates: reference: Burkholder et al. (2015).
[4] abbreviates: reference: Sander et al. (2011).
Where [5] appears, read: reference: Sander et al. (2006).

As for `CCCCC=O` [pentanal], the “Henry solubility constant Hcp” value (reference: Brockbank (2013)) was 0.066. `CCOC(=O)c1ccccc1` [ethyl benzoate]: the “Henry solubility constant Hcp” value (reference: Brockbank (2013)) is 0.17. For the compound `CC(C)Cl` [2-chloropropane], the “Henry solubility constant Hcp” value (reference: Brockbank (2013)) is 0.00057.

Regarding `CCOP(=S)(OCC)SCSC(C)(C)C` [terbufos], the “Henry solubility constant Hcp” value under setting [1] was 0.0099. For `COP(=S)(OC)SCN1C(=O)c2ccccc2C1=O` [phosmet], under setting [1], the “Henry solubility constant Hcp” value is 10. On to `CC(C)CCO` [3-methyl-1-butanol], for which the “Henry solubility constant Hcp” value (reference: Brockbank (2013)) was 0.82. On to `COC(=O)Nc1cccc(OC(=O)Nc2cccc(C)c2)c1` [phenmedipham], for which the “Henry solubility constant Hcp” value under setting [1] is 120000. Take `CCC/C=C(/C=O)CC` [2-ethyl-2-hexenal]: under “reference: Brockbank (2013)”, the “Henry solubility constant Hcp” value is 0.052.

In the case of `CCOC(=O)CC(C)C` [ethyl 3-methylbutanoate], where the note is “reference: Brockbank (2013)”, the “Henry solubility constant Hcp” value was 0.014. As to `CCOP(=S)(OCC)SCCSCC` [disulfoton], the “Henry solubility constant Hcp” value was 0.045 under setting [1] and 11 (reference: Muir et al. (2004)).

As to `Cc1ccc(N)c(C)c1` [2,4-dimethylbenzenamine], the “Henry solubility constant Hcp” value (reference: Brockbank (2013)) is 2.8. Consider `CCBr` [bromoethane], for which the “Henry solubility constant Hcp” value (reference: Brockbank (2013)) was 0.0013 and the “Henry solubility constant Hcp” value under setting [2] is 0.0013.

With `CCOC(=O)CC(SP(=S)(OC)OC)C(=O)OCC` (centres undefined) [malathion], the “Henry solubility constant Hcp” value by setting is: under setting [1], 4.3; (reference: Brockbank (2013)) 20.

As for `Clc1ccc(Cl)c(-c2cc(Cl)ccc2Cl)c1` [2,2',5,5'-tetrachlorobiphenyl], for the setting “reference: Murphy et al. (1983b)”, the “Henry solubility constant Hcp” value was 0.038. Consider `FOF` [difluorine monoxide], for which the “Henry solubility constant Hcp” value (reference: Schäfer and Lax (1962)) is 2.9e-05.

Take `CC(C)(C)C(O)(CCc1ccc(Cl)cc1)Cn1cncn1` (centres undefined) [tebuconazole]: under setting [1], the “Henry solubility constant Hcp” value was 1100.

`CCOP(=O)(OCC)OC(=CCl)c1ccc(Cl)cc1Cl` [chlorfenvinphos]: under setting [1], the “Henry solubility constant Hcp” value is 35. Take `CC(C)NC(=O)N1CC(=O)N(c2cc(Cl)cc(Cl)c2)C1=O` [iprodione]: the “Henry solubility constant Hcp” value under setting [1] is 710. As for `CCN(CC)c1ccccc1` [(diethylamino)-benzene], for the setting “reference: Brockbank (2013)”, the “Henry solubility constant Hcp” value was 0.067. For the compound `CCOO` [ethyl hydroperoxide], the “Henry solubility constant Hcp” value (reference: Brockbank (2013)) is 3.3, the “Henry solubility constant Hcp” value under setting [3] was 3.3, the “Henry solubility constant Hcp” value under setting [2] is 3.3 and the “Henry solubility constant Hcp” value under setting [4] is 3.3.

Regarding `Cc1cccnc1` [3-methylpyridine], under “reference: Brockbank (2013)”, the “Henry solubility constant Hcp” value is 1.2.

Consider `CCCOC(=O)CC` [propyl propanoate], for which the “Henry solubility constant Hcp” value (reference: Brockbank (2013)) is 0.026.

Regarding `CCCCC(C)CC` (centres undefined) [3-methylheptane], the “Henry solubility constant Hcp” value (reference: Brockbank (2013)) was 2.6e-06. Consider `COC(=O)C(F)(F)F` [trifluoroethanoic acid, methyl ester], for which the “Henry solubility constant Hcp” value by setting is: under setting [3], 0.0011; under setting [2], 0.0011; under setting [4], 0.0011.

Regarding `ClC(Cl)C(Cl)(Cl)Cl` [pentachloroethane], the “Henry solubility constant Hcp” value (reference: Brockbank (2013)) is 0.0042 and the “Henry solubility constant Hcp” value under setting [2] was 0.0041.

For `CCOC(=O)C(C)C` [ethyl 2-methylpropanoate], the “Henry solubility constant Hcp” value (reference: Brockbank (2013)) is 0.015. `CC(C)N(C(=O)SCC(Cl)=C(Cl)Cl)C(C)C` [triallate]: under setting [1], the “Henry solubility constant Hcp” value is 0.01.

Turning to `OI` [hypoiodous acid], for the setting “reference: Palmer et al. (1985)”, the “Henry solubility constant Hcp” value was greater than 4.1. As to `CCSC` [ethyl methyl sulfide], the “Henry solubility constant Hcp” value by setting is: under setting [3], 0.0042; under setting [2], 0.0042. Consider `CCCCCCCCCCO` [1-decanol], for which, where the note is “reference: Brockbank (2013)”, the “Henry solubility constant Hcp” value is 0.2. `[N]=O` [nitrogen monoxide]: the “Henry solubility constant Hcp” value by setting is: (reference: Loomis (1928)) 1.9e-05; under setting [5], 1.9e-05; under setting [4], 1.9e-05; (reference: Schwartz and White (1981)) 1.9e-05; (reference: Young (1981b)) 1.9e-05. On to `CC#N` [ethanenitrile], for which the “Henry solubility constant Hcp” value (reference: Arijs and Brasseur (1986)) was 0.47; the “Henry solubility constant Hcp” value (reference: Brockbank (2013)) was 0.49; the “Henry solubility constant Hcp” value under setting [3] is 0.52; the “Henry solubility constant Hcp” value under setting [2] was 0.52; the “Henry solubility constant Hcp” value (reference: Fogg and Sangster (2003)) was 0.5; the “Henry solubility constant Hcp” value (reference: Gaffney and Senum (1984)) was 0.29. For the same compound, the “Henry solubility constant Hcp” value by setting is: (reference: Hine and Weimar (1965)) 0.29; (reference: Plyasunov et al. (2006)) 0.38; under setting [5], 0.52; under setting [4], 0.52.

For `CCOP(=S)(OCC)Oc1nc(Cl)c(Cl)cc1Cl` [chlorpyrifos], the “Henry solubility constant Hcp” value was 0.0056 under setting [1]; 3.4 (reference: HSDB (2015)); 1.8 and 2.1 (reference: Muir et al. (2004)). Turning to `COc1ccc(NC(=O)N(C)C)cc1Cl` [metoxuron], the “Henry solubility constant Hcp” value under setting [1] is 6.6.
